Source: US7893074B2, “2, 4-pyrimidinediamines useful in the treatment of neoplastic diseases, inflammatory and immune system disorders” (Novartis AG, priority 2003, dated 2011)
Where “and” joins values, the source holds several entries; their conditions need not be identical. Equal values may be shown once. Read-outs that look alike come from different tables or passages of the source.

Tests used:
[1] = molecular target: Focal Adhesion Kinase (FAK) (Homo sapiens, UniProt Q05397); assay: FAK assay system (Focal Adhesion Kinase inhibition); format: biochemical
Chain of Focal Adhesion Kinase (FAK) (Q05397 384-706): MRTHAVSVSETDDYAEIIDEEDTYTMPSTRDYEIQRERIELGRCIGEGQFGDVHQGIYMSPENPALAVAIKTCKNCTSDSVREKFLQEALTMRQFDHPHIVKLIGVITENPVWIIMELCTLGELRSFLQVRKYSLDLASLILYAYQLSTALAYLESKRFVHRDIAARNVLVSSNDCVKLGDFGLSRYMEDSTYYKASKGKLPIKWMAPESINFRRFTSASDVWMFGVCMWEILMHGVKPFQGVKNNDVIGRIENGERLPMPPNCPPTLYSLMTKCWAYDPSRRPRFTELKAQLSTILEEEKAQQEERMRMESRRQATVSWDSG

[2] = tested on: Mouse mammary carcinoma 4T1 cells; assay: Anchorage-independent tumor cell growth assay; format: cell-based
Experimental: Cells are cultured for 2 h and inhibitors are added at various concentrations in a final concentration of 0.1% DMSO. After 48 h, cell growth is assayed with the cell counting kit-8 (Wako Pure Chemical), which uses a water soluble tetrazolium salt WST8. Twenty μL of the reagent is added into each well and cells are further cultured for 2 h. The optical density is measured at 450 nm.

[3] = molecular target: FAK (Mus musculus, UniProt P34152); assay: Phos IC50 (phosphorylation); format: cell-based
Chain of FAK (P34152 2-1052): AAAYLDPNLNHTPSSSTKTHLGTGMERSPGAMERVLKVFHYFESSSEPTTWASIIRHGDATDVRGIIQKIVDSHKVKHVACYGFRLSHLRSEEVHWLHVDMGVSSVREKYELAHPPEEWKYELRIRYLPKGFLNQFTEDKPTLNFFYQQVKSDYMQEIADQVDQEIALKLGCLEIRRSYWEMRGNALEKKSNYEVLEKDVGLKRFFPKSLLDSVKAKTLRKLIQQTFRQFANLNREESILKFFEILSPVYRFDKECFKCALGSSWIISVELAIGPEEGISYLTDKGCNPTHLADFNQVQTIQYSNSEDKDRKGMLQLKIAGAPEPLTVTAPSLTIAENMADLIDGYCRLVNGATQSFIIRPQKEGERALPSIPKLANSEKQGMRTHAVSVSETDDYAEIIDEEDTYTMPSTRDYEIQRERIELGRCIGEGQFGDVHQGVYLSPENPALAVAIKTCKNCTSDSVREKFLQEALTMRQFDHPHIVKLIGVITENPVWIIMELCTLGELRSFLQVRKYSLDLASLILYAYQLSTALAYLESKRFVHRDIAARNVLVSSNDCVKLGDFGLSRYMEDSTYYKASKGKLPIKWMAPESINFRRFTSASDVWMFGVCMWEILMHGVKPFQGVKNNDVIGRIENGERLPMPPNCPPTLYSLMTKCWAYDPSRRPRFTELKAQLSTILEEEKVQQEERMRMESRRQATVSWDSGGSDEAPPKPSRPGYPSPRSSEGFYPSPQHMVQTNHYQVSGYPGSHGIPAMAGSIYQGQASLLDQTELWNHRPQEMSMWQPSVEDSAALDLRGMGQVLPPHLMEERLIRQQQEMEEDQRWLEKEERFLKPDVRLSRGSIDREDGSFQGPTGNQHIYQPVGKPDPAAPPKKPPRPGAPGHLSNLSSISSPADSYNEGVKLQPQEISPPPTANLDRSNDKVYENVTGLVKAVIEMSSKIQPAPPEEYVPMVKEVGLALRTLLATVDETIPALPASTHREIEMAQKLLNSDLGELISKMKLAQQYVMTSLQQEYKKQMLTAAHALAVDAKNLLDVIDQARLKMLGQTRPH

IC50 ([1]; read-out: FAK IC50)	IC50 ([2]; Mus musculus, 4T1) [µM]	Structure (SMILES)	further results
0.11 µM	5	NS(=O)(=O)c1ccccc1Nc1nc(Nc2cccc3c2OC(F)(F)O3)ncc1Br [Compound 6, 2-[5-Bromo-2-(2,3-[difluoromethylenedioxy]phenylamino)-pyrimidin-4-ylamino]-benzenesulfonamide]	IC50 [3]: 0.35 µM
0.14 µM	> 10	CNS(=O)(=O)c1ccccc1Nc1nc(Nc2cc(OC)ccc2OC)ncc1[N+](=O)[O-] [Example 1, 2-[2-(2,5-Dimethoxy-phenylamino)-5-nitro-pyrimidin-4-ylamino]-N-methyl-benzenesulfonamide]	IC50 [3]: 0.7 µM
0.044 µM	> 10	CNS(=O)(=O)c1ccccc1Nc1nc(Nc2cccc3c2OC(F)(F)O3)ncc1Br [Example 3-1]	IC50 [3]: 0.34 µM
0.0091 µM	0.8	CNS(=O)(=O)c1ccccc1Nc1nc(Nc2cc(OC)ccc2C)ncc1Br [Example 3-3]	IC50 [3]: 0.14 µM
0.032 µM	2	CNS(=O)(=O)c1ccccc1Nc1nc(Nc2ccc(C)cc2F)ncc1Br [Example 3-4]	IC50 [3]: 0.53 µM
0.013 µM	2	CNS(=O)(=O)c1ccccc1Nc1nc(Nc2ccccc2OC)ncc1Br [Example 3-6]	IC50 [3]: 0.11 µM
0.016 µM	2	CNS(=O)(=O)c1ccccc1Nc1nc(Nc2ccccc2C)ncc1Br [Example 3-7]	IC50 [3]: 0.45 µM
0.074 µM	6	CNc1ccccc1Nc1ncc(Br)c(Nc2ccccc2S(=O)(=O)NC)n1 [Example 3-8]	IC50 [3]: 0.3 µM
0.048 µM	0.7	CNS(=O)(=O)c1ccccc1Nc1nc(Nc2cc(-c3ccccc3)ccc2OC)ncc1Br [Example 3-9]	IC50 [3]: 0.5 µM
0.039 µM	0.39	CNS(=O)(=O)c1ccccc1Nc1nc(Nc2cc(C(=O)N3CCN(C)CC3)ccc2OC)ncc1Br [Example 3-49]	–
0.012 µM	> 10	CCOc1ccc(OC)cc1Nc1ncc(Br)c(Nc2ccccc2S(=O)(=O)NC)n1 [Example 3-61]	–
–	–	CNS(=O)(=O)c1ccccc1Nc1nc(Nc2ccc(OC3CCN(C)C3)cc2OC)ncc1Br (stereo not drawn) [Example 3-82]	IC50 [2]: 0.07 µM
–	–	CNC(=O)c1ccccc1Nc1nc(Nc2ccc(N3CCC[C@@H](C(N)=O)C3)cc2OC)ncc1Cl [Example 7-17]	IC50 ([1]; FAK IC50): 0.0043 µM
–	–	CNC(=O)c1ccccc1Nc1nc(Nc2ccc(N3CCC[C@H](C(N)=O)C3)cc2OC)ncc1Cl [Example 7-18]	IC50 ([1]; FAK IC50): 0.0062 µM
0.013 µM	0.33	CNC(=O)c1ccccc1Nc1nc(Nc2cc(N3CCC(N4CCN(C)CC4)CC3)ccc2OC)ncc1Cl [Example 7-19]	–
0.025 µM	0.48	CNC(=O)c1ccccc1Nc1nc(Nc2cc(N3CCN(C)CC3)ccc2OC)ncc1Cl [Example 7-22]	–
0.0014 µM	0.25	CNC(=O)c1ccccc1Nc1nc(Nc2cc(N3CCC(NC)C3)ccc2OC)ncc1Cl (stereo not drawn) [Example 7-23]	–
0.0051 µM	0.09	CNC(=O)c1ccccc1Nc1nc(Nc2cc(N3CCC(N4CCCCC4)CC3)ccc2OC)ncc1Cl [Example 7-24]	–
0.013 µM and 0.002 µM	0.73	CNC(=O)c1ccccc1Nc1nc(Nc2ccc(N3CCC(N4CCCC4)CC3)cc2OC)ncc1Cl [Example 7-25]	IC50 [2]: 0.57 µM
0.0041 µM	0.15	CNC(=O)c1ccccc1Nc1nc(Nc2ccc(N3CCNCC3)cc2OC)ncc1Cl [Example 7-26]	–
–	–	CCNC(=O)c1ccccc1Nc1nc(Nc2ccc(N3CCC(N4CCCCC4)CC3)cc2OC)ncc1Cl [Example 9-3]	IC50 [2]: 0.37 µM
0.0016 µM	0.05	COc1cc(N2CCN(C)CC2)ccc1Nc1ncc(Cl)c(Nc2cccc3c2C(=O)N(C)C3)n1 [Example 12-2]	–
0.0023 µM	0.25	COc1cc(N2CCC(O)CC2)ccc1Nc1ncc(Cl)c(Nc2cccc3c2C(=O)N(C)C3)n1 [Example 12-3]	–
0.0011 µM	0.14	COc1cc(N2CCC(N3CCN(C)CC3)CC2)ccc1Nc1ncc(Cl)c(Nc2cccc3c2C(=O)N(C)C3)n1 [Example 12-4]	–

IC50 ([1]; read-out: FAK IC50)	IC50 ([2]; Mus musculus, 4T1) [µM]	Structure (SMILES)	further results
0.0026 µM	–	COc1cc(N2CCN3CCOC[C@H]3C2)ccc1Nc1ncc(Cl)c(Nc2cccc3c2C(=O)N(C)C3)n1 [Example 12-6]	–
0.065 µM	0.81	CCN1Cc2cccc(Nc3nc(Nc4ccc(N5CCN(C)CC5)cc4OC)ncc3Cl)c2C1=O [Example 13-1]	–
0.018 µM	0.54	COc1cc(N2CCOCC2)ccc1Nc1ncc(Cl)c(Nc2cccc3c2C(=O)CC3)n1 [Example 14-4]	–
0.063 µM	1.11	COc1cc(N2CCOCC2)ccc1Nc1ncc(Cl)c(Nc2ccccc2C(=O)N2CCCC2)n1 [Example 14-6]	–
0.015 µM	0.47	CNC(=O)c1cc(N2CCCC2)ccc1Nc1nc(Nc2ccc(N3CCN(C)CC3)cc2OC)ncc1Cl [Example 15-1]	–
–	–	CNC(=O)c1cc(N2CCCC2)ccc1Nc1nc(Nc2ccc(N3CCOCC3)cc2OC)ncc1Cl [Example 15-3]	IC50 [2]: 1.67 µM
0.0057 µM	0.4	COc1cc(N2CCCC(C(N)=O)C2)ccc1Nc1ncc(Cl)c(Nc2ccccc2S(=O)(=O)NC(C)C)n1 (stereo not drawn) [Example 19-19]	–
0.0019 µM	–	COc1cc(OCCN2CCOCC2)ccc1Nc1ncc(Cl)c(Nc2ccccc2S(=O)(=O)NC(C)C)n1 [Example 19-29]	–
0.0095 µM	–	CNS(=O)(=O)c1ccccc1Nc1nc(Nc2cc(OC)c(N3CCOCC3)cc2OC)ncc1Cl [Example 20-12]	–
0.0063 µM	0.04	CNS(=O)(=O)c1ccccc1Nc1nc(Nc2cc(OC)c(N3CCN(C)CC3)cc2OC)ncc1Cl [Example 20-13]	–
0.033 µM	0.32	CCCOc1cc(N2CCN(C)CC2)ccc1Nc1ncc(Cl)c(Nc2ccccc2S(=O)(=O)NC)n1 [Example 20-14]	–
0.0075 µM	0.06	CNS(=O)(=O)c1ccccc1Nc1nc(Nc2ccc(N3CCC(N4CCN(C)CC4)CC3)cc2OC)ncc1Cl [Example 20-16]	–
0.002 µM	0.14	CNC1CCN(c2ccc(Nc3ncc(Cl)c(Nc4ccccc4S(=O)(=O)NC)n3)c(OC)c2)C1 (stereo not drawn) [Example 20-17]	–
0.015 µM	0.81	CNS(=O)(=O)c1ccccc1Nc1nc(Nc2cc(N3CCC(N4CCN(C)CC4)CC3)ccc2OC)ncc1Cl [Example 20-18]	–
0.028 µM	0.21	CNS(=O)(=O)c1ccccc1Nc1nc(Nc2cc(N3CCC(O)CC3)ccc2OC)ncc1Cl [Example 20-19]	–
–	–	CNS(=O)(=O)c1ccccc1Nc1nc(Nc2ccc(OC3CCN(C)C3)cc2OC)ncc1Cl (stereo not drawn) [Example 20-29]	IC50 [2]: 0.05 µM
0.039 µM	0.5	CNS(=O)(=O)c1ccccc1Nc1nc(Nc2cc(N3CCN(C)CC3)ccc2OC)ncc1Cl [Example 20-31]	–
0.013 µM	0.11	CNS(=O)(=O)c1ccccc1Nc1nc(Nc2cc(N3CCC(N4CCCCC4)CC3)ccc2OC)ncc1Cl [Example 20-32]	–
0.0025 µM	0.38	CNC1CCN(c2ccc(OC)c(Nc3ncc(Cl)c(Nc4ccccc4S(=O)(=O)NC)n3)c2)C1 (stereo not drawn) [Example 20-33]	–
–	–	CCC(CC)NS(=O)(=O)c1ccccc1Nc1nc(Nc2ccc(OC3CCN(C)C3)cc2OC)ncc1Cl (stereo not drawn) [Example 23-7]	IC50 [2]: 0.84 µM
0.005 µM	0.19	CCCS(=O)(=O)c1ccccc1Nc1nc(Nc2ccc(N3CCCC(C(N)=O)C3)cc2OC)ncc1Cl (stereo not drawn) [Example 26-14]	–
0.0011 µM	–	CCCS(=O)(=O)c1ccccc1Nc1nc(Nc2ccc(N3CCN(CC(=O)NC(C)C)CC3)cc2OC)ncc1Cl [Example 26-21]	IC50 [3]: 0.1 µM
–	–	COc1cc(OC2CCN(C)CC2)ccc1Nc1ncc(Cl)c(Nc2ccccc2S(=O)(=O)C(C)C)n1 [Example 28-19]	IC50 [2]: 0.14 µM
0.0044 µM	–	CNC1CCN(c2ccc(Nc3ncc(Cl)c(Nc4ccccc4S(=O)(=O)C(C)C)n3)c(OC)c2)CC1 [Example 28-20]	IC50 [3]: […]

Structure (SMILES)	IC50 ([1]; read-out: FAK IC50)	IC50 ([2]; Mus musculus, 4T1) [µM]	further results
CNS(=O)(=O)c1ccccc1Nc1nc(Nc2ccc(OC)cc2OC)ncc1Br [Example 2, 2-[5-Bromo-2-(2,4-dimethoxy-phenylamino)-pyrimidin-4-ylamino]-N-methyl-benzenesulfonamide]	0.013 µM	–	–
CNS(=O)(=O)c1ccccc1Nc1nc(Nc2cccc3c2CCC3)ncc1Br [Example 3-12]	–	1	IC50 ([1]; FAK IC50): 0.0054 µM; IC50 ([1]; FAK inhibition IC50, FAK assay system): 0.001 to 0.005 µM
CNS(=O)(=O)c1ccccc1Nc1nc(Nc2ccc(F)cc2F)ncc1Br [Example 3-36]	–	2.8	IC50 ([1]; FAK IC50): 0.043 µM
CNS(=O)(=O)c1ccccc1Nc1nc(Nc2cccc(N(C)C)c2C)ncc1Br [Example 3-53]	–	0.21	IC50 ([1]; FAK IC50): 0.006 µM
CNS(=O)(=O)c1ccccc1Nc1nc(Nc2cc(-c3ccc(OC)cc3)ccc2OC)ncc1Br [Example 3-56]	–	0.15	IC50 ([1]; FAK IC50): 0.028 µM
CNC(=O)c1cc(F)c(F)cc1Nc1nc(Nc2ccc(N3CCOCC3)cc2OC)ncc1Cl [Example 14-3]	–	1.01	IC50 ([1]; FAK IC50): 0.03 µM
COc1cc(OCC(C)(C)CN(C)C)ccc1Nc1ncc(Cl)c(Nc2ccccc2S(=O)(=O)NC(C)C)n1 [Example 19-24]	–	0.12	IC50 ([1]; FAK IC50): 0.0018 µM
COc1cc(N2CCOCC2)ccc1Nc1ncc(Cl)c(Nc2ccccc2S(=O)(=O)NC2CCCC2)n1 [Example 25-1]	–	1	IC50 ([1]; FAK IC50): 0.0085 µM
COc1cc(N2CCC(N3CCN(C)CC3)CC2)ccc1Nc1ncc(Cl)c(Nc2ccccc2S(=O)(=O)C(C)C)n1 [Example 28-5]	–	0.12	IC50 [3]: 0.1 µM
COc1cc([N+](=O)[O-])ccc1Nc1ncc(Cl)c(Nc2ccccc2S(=O)(=O)C(C)C)n1 [Example 28-7]	–	> 10	IC50 ([1]; FAK IC50): 0.047 µM
CCN1CCN(c2ccc(Nc3ncc(Cl)c(Nc4ccccc4S(=O)(=O)C(C)C)n3)c(OC)c2)CC1 [Example 28-12]	0.0032 µM	0.43	–
